# Laboratory results reported in US11312940B2, “Progenitor cells and methods for preparing and using the same” (University of Louisville Research Foundation, Inc., priority 2015, dated 2022).
# What was measured:
# [1] = test system: sublethally irradiated mice; experiment: Recovery of PB counts in sublethally irradiated mice; type: in vivo, mouse; conditions: 650 cGy, injections for 10 days
# Method: Fifty microliters of PB was taken from the retro-orbital plexus of the mice and collected into microvette EDTA-coated tubes (Sarstedt AG & Co., Nümbrecht, Germany). Samples were run within 2 hours of collection on a HEMAVET® 950 hematology analyzer (Drew Scientific Inc., Oxford, Conn.) as described in Borkowska et al., 2014.
# Blood was collected on days 0, 3, 7, 14, 21, and 28, and white blood cell (WBC), platelet, red blood cells (RBC), and hematocrit were measured on a HEMAVET® instrument (HV950FS; Drew Scientific Inc.) as described in Borkowska et al, 2014. Experiments were performed twice (each time, n=5).
# [2] = test system: Sca-1+/Lin-/CD45+ cells (HSPCs); experiment: In vivo BrdU incorporation into BM HSPCs; design: species or system mouse
# Method: (§1) Hormone treatment was performed for 10 days.
# (§2) All mAbs were added at saturating concentrations, and the cells were incubated for 30 minutes on ice, washed twice, and then resuspended for sorting in cell-sorting medium containing 1× Hank's Balanced Salt Solution without phenol red (GIBCO™, a division of Thermo Fisher Scientific Inc., Waltham, Mass.), 2% heat-inactivated fetal calf serum (GIBCO™), 10 mM HEPES buffer (GIBCO™), and 30 U/mL gentamicin (GIBCO™) at a concentration of 5×10^6 cells/mL. Sca-1^+/Lin^−/CD45^− cells (VSELs) and Sca-1^+/Lin^−/CD45^+ cells (HSCs) were isolated according to the gating and sorting strategy described in Zuba-Surma & Ratajczak, 2010 and Suszynska et al, 2014b. Proliferation events in BM-derived VSEL and HSC populations were examined by BrdU incorporation followed by flow cytometry.
# (§3) Adult C57BL/6 mice (4-8 weeks old; Jackson Laboratory) were intraperitoneally (i.p.) were injected daily with 1 mg of BrdU solution to evaluate whether SexHs affect proliferation of stem cells, and the final injection of BrdU was performed 1 hour before sacrificing the animals (see Grymula et al, 2014). […] Samples were analyzed with a Navios flow cytometer (Beckman Coulter).
# [3] = test system: BM HSPCs; experiment: Total number of BM HSPCs by FACS after SexH administration; type: in vivo, mouse; conditions: male and female mice, 10-day administration
# Method: as §1, §2
# [4] = test system: BM VSELs; experiment: Total number of BM VSELs by FACS after SexH administration; type: in vivo, mouse; conditions: 10-day administration; for increase in total number of VSELs/10^6 BMMNCs (ranking): female mice; for increase in total number of VSELs/10^6 BMMNCs: male BM
# Method: as §1, §2
# [5] = test system: Sca-1+/Lin-/CD45- cells (VSELs); experiment: In vivo BrdU incorporation into BM VSELs; design: species or system mouse; conditions: for BrdU incorporation response of Sca-1+/Lin-/CD45- cells (ranking): 10-day administration
# Method: as §1, §2, §3
Molecule,leucocyte counts [1],increase in percentage of BrdU+ Sca-1+/Lin-/CD45+ cells (ranking) ([2]; 10-day administration),increase in BM HSPCs/10^6 BMMNCs (ranking) [3],increase in total number of VSELs/10^6 BMMNCs (ranking) [4],increase in total number of VSELs/10^6 BMMNCs [4],BrdU incorporation response of Sca-1+/Lin-/CD45- cells (ranking) ([5]; female and male cells),BrdU incorporation into Sca1+/Lin-/CD45+ HSPCs ([2]; ovariectomized female mice),BrdU incorporation in Sca-1+/Lin-/CD45- VSELs ([5]; ovariectomized female mice),BrdU incorporation response of Sca-1+/Lin-/CD45- cells (ranking) ([5]; female cells)
C#C[C@]1(O)CC[C@H]2[C@@H]3CCC4=Cc5oncc5C[C@]4(C)[C@H]3CC[C@@]21C [danazol],statistically significant increase,highest increases,highest stimulatory effect,most effective,about 2.5 fold,highest response,–,–,–
"C[C@]12CC[C@@H]3c4ccc(O)cc4CC[C@H]3[C@@H]1CC[C@@H]2O [estrogen, estradiol]",–,–,–,–,about 2.5 fold,–,–,–,–
CC(=O)[C@H]1CC[C@H]2[C@@H]3CCC4=CC(=O)CC[C@]4(C)[C@H]3CC[C@]12C [progesterone],–,–,–,–,–,–,small increase in BrdU incorporation,enhanced BrdU incorporation,–
"prolactin (protein, UniProt P01236 29-227, looked up, pituitary sex hormone, purchased from ProSpec) Prolactin: LPICPGGAARCQVTLRDLFDRAVVLSHYIHNLSSEMFSEFDKRYTHGRGFITKAINSCHTSSLATPEDKEQAQQMNQKDFLSLIVSILRSWNEPLYHLVTEVRGMQEAPEAILSKAVEIEEQTKRLLEGMELIVSQVHPETKENEIYPVWSGLPSLQMADEESRLSAYYNLLHCLRRDSHKIDNYLKLLKCRIIHNNNC",statistically significant increase,–,–,most effective,about 2.5 fold,–,–,–,highest response
